Measurements published in PMC10644327, “A randomized, double‐blind phase 1b study evaluating the safety, tolerability, pharmacokinetics and pharmacodynamics of the NLRP3 inhibitor selnoflast in patients with moderate to severe active ulcerative colitis” (Clinical and Translational Medicine, 2023).
In brackets after ≈: the same amount, converted by molar mass. Like-named read-outs stand apart in the source and are kept apart here.

What was measured:
[1] = system: IL‐1β release in whole blood; assay: Inhibition of IL‐1β release in whole blood upon ex vivo stimulation with LPS (TruCulture), UC patients; set-up: species or system human; details: for Inhibition of IL‐1β release compared to baseline: 450 mg
Procedure: (§1) Blood samples were drawn pre‐dose and at various timepoints and placed in TruCulture whole blood collection and culture tubes that were pre‐filled with lipopolysaccharide (LPS) (final working concentration of 100 ng/mL LPS after addition of 1 mL of blood to the LPS‐containing Truculture tubes). Following 24 h incubation, TruCulture supernatants were collected, stored, and levels of secreted IL‐1β were subsequently measured in order to understand how these responded to NLRP3 inhibition by selnoflast. The levels of IL‐1β were also quantified in plasma K2EDTA samples using the same SIMOA IL‐1β Assay Kit (Quanterix). The quantitative range of the method was 0.196 to 490 pg/mL for plasma and 4.01 to 1470 pg/mL in Truculture supernatants. Plasma samples were also assessed for IL‐18, using a commercial SIMOA IL‐18 Assay Kit (Quanterix; the quantitative range for plasma was 0.0200–45.0 pg/mL).

IL‐18 = assay: Plasma IL‐18 (SIMOA) in UC patients; type: in vivo, human; details: 450 mg QD, 7 days
Procedure: as §1

calprotectin = assay: Stool calprotectin in UC patients; type: in vivo, human; details: Day 7, mean (± SD), selnoflast arm; results called uninterpretable (8/19 baseline samples not per protocol)
Procedure: Tissue biopsies from the sigmoid colon were obtained before start of treatment (up to Day −3) and at the end of treatment (Day 7). For operational reasons, biopsies were taken 2−4.5 h post‐dose on Day 7. Stool samples were obtained at screening, before start of treatment, throughout the study, and at the 14‐day follow‐up visit. Levels of calprotectin were determined in stool samples. Sigmoid colon tissue was processed for RNA and DNA extraction as well as for single‐cell analysis, subsequent transcriptomic analysis, and identification of PD biomarkers. Sigmoid colon tissue samples were also processed for histology (hematoxylin and eosin staining, immunohistochemistry, fluorescence in situ hybridization) in order to characterize the cell types present (i.e., neutrophils and inflammatory monocytes). Histological analysis was performed on sigmoid colon tissue samples (from baseline and Day 7) using the disease‐specific histological indices Geboes score[23] and Nancy index.[24] Caspase‐1 (pro and active form) was assessed using a validated WES‐assay (manuscript in preparation).

[2] = system: IL‐1 gene signature (CXCL1, CXCL2, CXCL3, CXCL5, CXCL6, CCL2, IL6, TNFAIP6); assay: IL‐1 gene signature in sigmoid colon tissue by qPCR; type: in vivo, human; details: mean [± SD], selnoflast arm, median log2FC of 8 genes
Procedure: A predefined IL‐1 gene signature comprising eight genes (i.e., CXCL1, CXCL2, CXCL3, CXCL5, CXCL6, CCL2, IL6, TNFAIP6) relevant in the context of IBD was assessed in RNA extracted from the sigmoid colon tissue. The signature had been determined by combining gene expression data that met the following criteria: (1) overlapping expression profiles (upregulation by IL‐1β stimulation) in multiple cell types,[25] (2) differential expression in relevant cell types across published and proprietary single‐cell RNA‐sequencing (scRNA‐seq) datasets involving IBD patients and controls[26] and (3) co‐expression with the IL1R1 receptor and differential colonic gene expression between UC patients and healthy individuals. The 8‐gene panel was then assessed by quantitative PCR (qPCR) before and after treatment (baseline and Day 7), normalized to a set of housekeeping genes (B2M, GusB, HPRT1, MRLP19) and log2 fold changes (log2FC) from baseline were reported per gene as well as across the eight genes (median log2FC = gene signature).

IL‐1β = IL‐1β IC90 calculated from in vitro studies; type: cell-based; details: estimated
[3] = system: IL‐1β release in activated human monocyte‐derived macrophages; set-up: method as in unpublished results; details: in vitro, ref unpublished results; cited from earlier work
NLRC4 = system: NLRC4; set-up: method as in unpublished results; details: ref unpublished results; cited from earlier work
AIM2 = system: AIM2; set-up: method as in unpublished results; details: ref unpublished results; cited from earlier work
NLRP3 inflammasome = system: NLRP3 inflammasome; set-up: method as in RO7486967 Investigator Brochure; details: ref RO7486967 Investigator Brochure; cited from earlier work
[4] = system: IL‐1β release in ex vivo stimulated whole blood; set-up: method as in unpublished results, study IZD334-001; details: healthy subjects, 450 mg QD, ref unpublished results, study IZD334-001, cited from earlier work
[5] = set-up: method as in Investigator Brochure; details: ref Investigator Brochure, cited from earlier work
[6] = set-up: method as in Investigator Brochure; details: ref Investigator Brochure, cited from earlier work; remark: listed apart in the source

CCN1CCC(S(=O)(=O)NC(=O)Nc2c3c(cc4c2CCC4)CCC3)CC1 [Selnoflast, selnoflast]
Inhibition of IL‐1β release compared to baseline ([1]; Day 1, from 30 min until at least 10 h post‐dose, mean (± SD)): > 95% | inhibition at 450 mg ([1]; Homo sapiens, at trough (25–100 h post‐dose), 450 mg QD, read-out: Inhibition of IL‐1β release compared to baseline): ~90% | Inhibition of IL‐1β release compared to baseline ([1]; just before the next administration on Day 2, mean (SD)): 91.2% | Change in plasma IL‐18 levels upon treatment (IL‐18): no significant changes | Stool calprotectin change from baseline (calprotectin): +4146.6 (± 12321.12) μg/g | IL‐1 gene signature, log2FC from baseline to Day 7 [2]: −1.14 [± 1.8] log2FC | IL‐1β IC90 (tissue) (IL‐1β): 1.94 µg/g | IC90 (IL‐1β; read-out: IL‐1β IC90 (plasma)): 2 µg/mL (≈ 5.11 µM) | Inhibition of IL‐1β release [3]: potent inhibitor | Inhibitory activity on NLRC4 inflammasome (NLRC4): no inhibitory activity | Inhibitory activity on AIM2 inflammasome (AIM2): no inhibitory activity | Effect on IL-1β release and cell death in vitro (NLRP3 inflammasome): inhibit IL-1β release and cell death in vitro | Inhibition of IL‐1β release compared to baseline ([4]; over the dosing interval (24 hours)): over 90% | Inhibition of IL‐1β release compared to baseline ([4]; over the dosing interval (24 hours), listed as RO7486967): 90% | Inhibition of IL‐1β release compared to baseline ([4]; up to 10 h post‐dose): 99% | Signs of hepatotoxicity ([5]; 26-week GLP study, rat): no signs of hepatotoxicity | Bacterial, viral, fungal, and other opportunistic infections ([5]; rats, nonclinical toxicology studies): No evidence | Signs of hepatotoxicity ([6]; 39-week GLP study, monkey): no signs of hepatotoxicity | Bacterial, viral, fungal, and other opportunistic infections ([6]; monkeys, nonclinical toxicology studies): No evidence
